≈ marks a conversion by molar mass, not a printed value. Residues, ends and D or L forms follow the SMILES beside them.
Columns and labels:
mammalian cells = conditions: cited from earlier work
Source text: Antibiotics are used excessively and inappropriately in clinic. As a result, it directly leads to the weakening of the effect of antibiotics and the emergence of drug-resistant pathogens. Among new biomedical alternatives, antimicrobial peptides (AMPs) and cell-penetrating peptides (CPPs) are considered promising candidates. CPPs are a new carrier that can pass through the cell membrane without cell surface receptor recognition and can deliver therapeutic drugs to the cell membrane. One of the most well-known examples of CPPs is penetratin (RQIKIWFQNRRMKWK ...

tested bacteria = conditions: cited from earlier work
Source text: To overcome the drawbacks of using cationic peptides as a new generation of antibiotics, researchers began to synthesize new short peptides by reducing the residue of the peptide chain for use as candidate drugs in clinical trials. […] Therefore, we aimed to figure out the antibacterial activity of RR9 on initial oral colonizers, specifically S. oralis, S. gordonii, and S. sanguinis ... || Antibiotics are used excessively and inappropriately in clinic. As a result, it directly leads to the weakening of the effect of antibiotics and the emergence of drug-resistant pathogens. Among new biomedical alternatives, antimicrobial peptides (AMPs) and cell-penetrating peptides (CPPs) are considered promising candidates. CPPs are a new carrier that can pass through the cell membrane without cell surface receptor recognition and can deliver therapeutic drugs to the cell membrane. One of the most well-known examples of CPPs is penetratin (RQIKIWFQNRRMKWK ...

sspA gene of S. gordonii = assay: RT-PCR of sspA gene expression; assay type: cell-based; conditions: RR9 25 μg mL^−1 (MIC), 24 h, p < 0.05
Method: Trizol reagent was employed to extract the total RNA of S. gordonii cells, following the manufacturer’s instructions. The first strand of cDNA was synthesized by the retrotranscription of 2 μL of RNA (Invitrogen, TRIzol Max Bacterial RNA Isolation Kit). The cDNA was amplified to a final volume of 20 μL by 45 cycles in a DNA thermal circulatory apparatus. Pre-denaturation was carried out at 95 °C for 15 s, and the reaction was performed at 95 °C for 10 s, 60 °C for 20 s, and 72 °C for 30 s. The primer sequences of the differentiation markers are shown in Table A1 in Appendix B. After amplification, GAPDH was defined as the internal reference gene, and the sample of the control group was set as the standard to obtain the CT value of each target gene for each sample. The data were analyzed using the relative quantification of ΔCT. The relative quantitative (RQ) values of all target genes were obtained according to the formula RQ = 2^−ΔΔCT.

[1] = tested on: streptococci biofilm (S. oralis, S. gordonii, S. sanguinis); assay: Biofilm susceptibility, crystal violet; assay type: cell-based; conditions: RR9 25 μg mL^−1 (MIC), 24 h, n = 3, p < 0.05
Method: The antibacterial agents were evaluated by the microdilution method to study their impact on biofilm formation. In our study, streptococci (5 × 10^7 CFU mL^−1) mixed with RR9 were cultured for 24 h. The formed biofilm was fixed using methanol (95%) and stained using 0.5% (w/v) crystal violet, and the final OD at 600 nm was measured.

S. oralis (ATCC No 9811) = assay type: cell-based, Streptococci oralis; conditions: ATCC No 9811, 24 h
Method: (§1) The bacterial strains S. oralis (ATCC No 9811), S. sanguinis (ATCC No 10556), and S. gordonii (ATCC No 10558) were purchased from the ATCC (American Type Culture Collection, Manassas, VA, USA). The cultivation method was the same as that described in a previous article.
(§2) The bacterial growth inhibiting ability of the peptide was determined using a broth microdilution-based method with modifications. […] The start inoculum was 5 × 10^7 CFU mL^−1, and the MIC was denoted as the lowest concentration of peptides where bacterial growth was stopped. After bacteria were treated with RR9 for 24 h, 20 uL was removed from each sample and spread on a brain heart infusion (BHI) agar plate. The CFU on plates were counted after incubation at 37 °C for 5 days. The MBC is the concentration of RR9 where over 99.9% of the cells were inhibited.

[2] = tested on: S. gordonii (ATCC No 10558); assay type: cell-based, Streptococci gordonii; conditions: ATCC No 10558, 24 h
Method: as §1, §2

[3] = tested on: human gingival fibroblasts (HGFs); assay type: cell-based; conditions: RR9 25 μg mL^−1, 1–4 days, CCK-8 OD 450 and AO/EB CLSM
Method: HGFs were purchased from Procell Life Science & Technology (Wuhan, China). Cells from passages 4 to 6 were used. The cultivation method was described previously.
The HGFs (2 × 10^3 cells per well) were cultured in DMEM supplemented with 10% FBS in a humidified incubator (37 °C, 5% CO2 atmosphere) for 24 h. Pretreatment of the cells was conducted by incubating with 25 μg mL^−1 RR9 for 1, 2, 3, and 4 days. Untreated cells were used as a negative control. The samples were characterized using the Cell Counting Kit-8 (Dojindo Laboratories, Kumamoto, Japan) by measuring their absorbance at 450 nm using a microplate reader (BioTek Synergy HT, Vermont, USA). After staining using AO/EB live/dead dye, the viability of seeded cells on the sterile coverslips was determined using CLSM. Each sample consisted of five wells.

[4] = tested on: S. sanguinis (ATCC No 10556); assay type: cell-based, Streptococci sanguinis; conditions: ATCC No 10556, 24 h
Method: as §1, §2

[5] = tested on: streptococci biofilms and cell membranes; assay: SEM and TEM observation of bacterial morphology; assay type: cell-based, S. oralis, S. gordonii, S. sanguinis; conditions: RR9 25 μg mL^−1, 24 h (SEM), 12 h (TEM)
Source text: The morphology of the formed biofilm was observed using scanning electron microscopy (SEM, SUPRA 55VP, Germany) following previously published procedures. Additionally, the transmission electron microscopy (TEM, JEM-2100F; JEOL Ltd., Tokyo, Japan)-based technique was employed for the structural analysis of RR9 cells according to the previously reported method. For more details, please check Appendix A.
A sterile coverslip was placed in a 24-well plate and was as described above. The coverslips with biofilms were fixed with 2.5% (v/v) glutaraldehyde, and the samples were dehydrated with increasing concentrations of ethanol for 15 min each. Prior to field-emission SEM, the samples were subjected to gold sputtering.
After incubation with RR9 (25 μg mL^−1) or without the peptide (control group) for 12 h at 37 °C in an anaerobic chamber (N2: 80%; H2: 10%; CO2: 10%), super-thin slice samples were prepared for TEM using a previously reported method. The cells were fixed with 2.5% glutaraldehyde at 4 °C for 4 h and, then, dyed with 2% uranyl acetate and 0.2% citrate before being observed under electron.

[6] = tested on: streptococci biofilm (S. oralis, S. gordonii, S. sanguinis); assay type: cell-based; conditions: RR9 25 μg mL^−1, 24 h at 37 °C, preformed 24 h biofilm, AO/EB
Method: Each bacteria suspension (300 μL) was mixed with BHI broth (900 μL) and then cultured for 24 h in a 24-well microtiter plate for biofilm formation. After the removal of the medium and unattached bacterial cells, RR9 (25 μg mL^−1) with saliva or serum was added, and the resulting samples were cultured for another 24 h at 37 °C. After the staining of the attached bacteria using an acridine orange/ethidium bromide (AO/EB) solution (Solarbio, Beijing, China), CLSM (Leica SP8, Oskar-Barnack-Strae Germany) was used to count the number of observed bacterial cells. For each biofilm strain, three representative areas per lens were scanned in at least three separate experiments. The images were captured using MetaMorph software (Universal Imaging, West Chester, PA, USA).

[7] = tested on: planktonic oral streptococci (S. oralis, S. sanguinis, S. gordonii); assay: Time-kill assay; assay type: cell-based
Method: To evaluate the effect of RR9 on planktonic oral streptococci, the time-killing assay was used. First, 200 μL of RR9 solution and 800 μL of BHI broth were mixed with 1 mL of bacterial culture (5 × 10^7 CFU mL^−1), yielding 2 mL of the final volume with 100%, 200%, or 400% of the MBC final peptide concentrations. After 0, 0.25, 0.5, 1, 2, 4, 24, and 48 h of incubation at 37 °C, 10 μL of each suspension was pipetted, serially diluted 10 times, and finally transferred to a BHI agar plate for CFU determination. The time–kill kinetic curves were obtained by recording log(CFU mL^−1) as a function of incubation time […].

Molecule	cytotoxicity toward mammalian cells (mammalian cells)	bactericidal effect on the tested bacteria (tested bacteria)	expression of the sspA gene versus control (sspA gene of S. gordonii)	biofilm formation, OD at 600 nm versus control [1]	MBC (S. oralis (ATCC No 9811))	MIC (S. oralis (ATCC No 9811))	antimicrobial effect against selected bacteria (tested bacteria)	MBC [2]	MIC [2]	cytotoxicity toward HGFs [3]	MBC [4]	MIC [4]	bacterial morphology and membrane integrity (SEM, TEM) [5]	anti-biofilm effect of RR9 with saliva or serum compared with RR9 alone (CLSM live/dead) [6]	time to complete bacterial death ([7]; 100%, 200% or 400% of the MBC, 37 °C, all tested strains)	duration of the antimicrobial effect ([7]; time-kill over 48 h)
RQIKIWFQNRRMKWKK-NH2 [penetratin, well-known cell-penetrating peptide, …-NH2]	without any cytotoxicity	strong bactericidal effect														
CC[C@H](C)[C@H](NC(=O)[C@H](CCC(N)=O)NC(=O)[C@@H](N)CCCNC(=N)N)C(=O)N[C@@H](CCCNC(=N)N)C(=O)N[C@@H](CCCNC(=N)N)C(=O)N[C@@H](Cc1c[nH]c2ccccc12)C(=O)N[C@@H](Cc1c[nH]c2ccccc12)C(=O)N[C@@H](CCC(N)=O)C(=O)N[C@@H](CCCNC(=N)N)C(N)=O [RR9, Arg-Gln-Ile-Arg-Arg-Trp-Trp-Gln-Arg-NH2] (H-RQIRRWWQR-NH2; N-terminus assumed)			significantly reduced	reduced OD value	62.5 µg/mL (≈ 45.2 µM)	25 µg/mL (≈ 18.1 µM)	strong antimicrobial effect	50 µg/mL (≈ 36.1 µM)	25 µg/mL (≈ 18.1 µM)	negligible cytotoxicity	62.5 µg/mL (≈ 45.2 µM)	25 µg/mL (≈ 18.1 µM)	the bacteria swelled, and some cell membranes were damaged	No significant difference	24 to 48 h	44 h
